Laboratory results taken from patent US5859037A, “Sulfonylurea-glitazone combinations for diabetes” (Warner-Lambert Company, priority 1997, dated 1999).
Several values for one entry are separate records, joined by “and”; a condition that tells them apart may be missing. Identical values can stand only once. Entries after “also recorded” stand apart in the source; their conditions may differ.

Legend:
Type in all cases: in vivo, patients
[1] = Body weight in clinical study; details: Month 12; for Body weight, Adjusted Mean Change From Baseline (SE): ITT; for mean decrease in body weight from baseline: monotherapy (troglitazone: range over doses)
Excerpt: This was a 12-month, double-blind, randomized, parallel-group, active-control, multicenter study design (FIG. 1). […] Patients were instructed to fast overnight prior to visits requiring specimen collection.

[2] = system: non-insulin dependent diabetes mellitus (NIDDM); assay: Patient disposition (withdrawal, completion)
Excerpt: This was a 12-month, double-blind, randomized, parallel-group, active-control, multicenter study design (FIG. 1). […] Patients could withdraw voluntarily at any time during the study or be withdrawn by the investigator because of significant adverse events or deterioration in health, poor compliance, pregnancy, or prolonged symptomatic hyperglycemia or persistent worsening or failure to improve glycemic control as monitored by FSG.

[3] = system: non-insulin dependent diabetes mellitus (NIDDM); assay: Glycemic control (FSG, HbA1c, responders) in 52-week double-blind clinical study
Excerpt: The method of treating diabetes employing a combination of a sulfonylurea and a glitazone has been established in a long-term controlled clinical evaluation. The study determined the efficacy and safety of troglitazone alone and in combination with the sulfonylurea glyburide for the treatment of non-insulin dependent diabetes mellitus (NIDDM). This study targeted the segment of the NIDDM population in which the disease state has progressed to a point where maximum doses of sulfonylureas no longer produce adequate glycemic control. […] Since the unstimulated (absence of sulfonylurea) insulin secretory capacity of the beta cells is very low in this population, reversing insulin resistance alone would be of partial benefit. Therefore, maintaining a level of stimulated insulin secretion with a sulfonylurea while adding troglitazone to improve insulin sensitivity could provide a level of glycemic control unattainable by either medication alone. […] Long-term safety was also an objective of this study, assessed by adverse events and clinical laboratory data. This was a 12-month, double-blind, randomized, parallel-group, active-control, multicenter study design (FIG. 1). […] The primary efficacy parameters included endpoints related to glucose homeostasis: FSG and HbA1c. The change from baseline in these parameters at Week 52 compared to active control (glyburide) was the primary measure of efficacy. For patients terminating early from the study, their last observation was carried forward (LOCF) to Week 52. A decrease in these parameters was indicative of an improvement in glycemic control. Efficacy analysis was performed on 2 patient populations, intent-to-treat and completers. […] Patients withdrawing from the study before Week 52 were included in the analysis using the LOCF procedure; the last measurement on treatment was substituted for the missing Week 52 measurement. The intent-to-treat patient sample was the primary sample for assessing efficacy. Completers comprised patients in the intent-to-treat sample who completed Week 52. The analysis of change from baseline to Week 52 was performed using analysis of covariance (ANCOVA). The primary model included effects due to treatment and center and baseline as covariate. Treatment-by-baseline and treatment-by-center interactions were also examined in supplemental models. For the primary comparisons of glyburide versus each combination, step-down tests for linear trend in dose response were performed based on the primary model. For the remaining primary pairwise comparisons of glyburide versus each monotherapy, t-tests were performed using the MSE from the analysis of covariance (with a Bonferroni-Holm adjustment). For all comparisons with glyburide, 95 confidence intervals are provided using Dunnett's test. […] For each patient, the baseline measurement for a given parameter was defined as the measurement at Week 0. […] The frequency distribution (number and percentage) of responders were provided by treatment group and visit. For the set of primary treatment comparisons concerning glyburide versus combination therapy, step-down comparisons of responders in each treatment group versus the glyburide group were performed by sequential application of the Cochran-Mantel-Haenszel (CMH) test for linear trend with study centers as strata. […] The CMH test for general association were also used to perform the secondary treatment comparisons as supplemental analysis.

[4] = Safety: adverse events and clinical laboratory measurements
Description: A complete physical examination and ECG were performed during screening and at the end of the study. Clinical laboratory parameters and vital signs including blood pressure were monitored throughout the study for safety reasons. Adverse events were recorded during clinic visits and evaluated by the investigator for intensity and relationship to study drug. Reduction in the daily dose of micronized glyburide could occur in cases of documented hypoglycemia.
All patients randomized to treatment were included in all safety evaluations.
Hypoglycemia, defined as an FSG <50 mg/dL (verified laboratory value), was to be recorded as an adverse event.
Adverse events that were treatment emergent (not present at baseline) are summarized in the following section using a modified COSTART dictionary. If, however, an adverse event present at baseline increased in intensity or frequency during treatment, the event was included in the summaries. Each patient reporting an adverse event was counted only once for that event regardless of the number of times the adverse event was reported. Associated adverse events were those considered by the investigator to be possibly, probably, or definitely related to study therapy.
Baseline clinical laboratory parameters were compared with values at the end of the study (last visit) to identify any abnormal trends. The percent of patients with increases or decreases in laboratory values were calculated based on the number of patients at risk for changes outside of the reference range; i.e., patients with low or high values at baseline were not considered at risk for a decrease or increase, respectively.
Laboratory results were then reviewed for these particular patients to determine which patients actually had clinically important changes in a given laboratory parameter.

[5] = Completers, Week 52, glyburide monotherapy (active control)
[6] = ITT, Week 52, glyburide (active control)
[7] = troglitazone 200 mg, or 200 mg/12 mg in combination
[8] = troglitazone 400 mg, or 400 mg/12 mg in combination
[9] = troglitazone 600 mg, or 600 mg/12 mg in combination
[10] = Completers, Week 52, troglitazone 200 mg, or 200 mg/12 mg in combination
[11] = Completers, Week 52, troglitazone 200 mg, or 200 mg/12 mg in combination, *p ≤ 0.05, **p ≤ 0.0001
[12] = Completers, Week 52, troglitazone 400 mg, or 400 mg/12 mg in combination
[13] = Completers, Week 52, troglitazone 600 mg, or 600 mg/12 mg in combination
[14] = ITT, Week 52, troglitazone 200 mg, or 200/12 mg in combination, *p ≤ 0.001 vs glyburide
[15] = ITT, Week 52, troglitazone 400 mg, or 400 mg/12 mg in combination, *p ≤ 0.001, **p ≤ 0.0001
[16] = ITT, Week 52, troglitazone 400 mg, or 400/12 mg in combination, *p ≤ 0.001 vs glyburide
[17] = ITT, Week 52, troglitazone 600 mg, or 600 mg/12 mg in combination, *p ≤ 0.001, **p ≤ 0.0001
[18] = ITT, Week 52, troglitazone 600 mg, or 600/12 mg in combination, *p ≤ 0.001 vs glyburide

Compound: COc1ccc(Cl)cc1C(=O)NCCc1ccc(S(=O)(=O)NC(=O)NC2CCCCC2)cc1 [Glyburide]
- Body weight, Adjusted Mean Change From Baseline (SE) ([1]; glyburide (active control)): -1.3 lbs
- mean decrease in body weight from baseline [1]: 1 lbs
- Withdrawn, Adverse Event, Number (%) of Patients ([2]; glyburide monotherapy): 6 (7.6) Number (%) of Patients
- Withdrawn, Lack of Efficacy, Number (%) of Patients ([2]; glyburide monotherapy): 20 (25.3) Number (%) of Patients
- withdrawal for lack of efficacy ([2]; glyburide monotherapy): Twenty-five
- Fasting Serum Glucose, Adjusted Mean Change From Baseline (SE) [3, 5]: 13.1 (8.6) mg/dL
- Hemoglobin A1c, Adjusted Mean Change From Baseline (SE) [3, 5]: 0.78 (0.27) %
- Fasting Serum Glucose, Adjusted Mean Change From Baseline (SE) ([3]; ITT, Week 52 (Month 12), glyburide monotherapy (active control)): 22.7 (6.9) mg/dL
- ≥30 mg/dL Reduction in FSG, Responders, N (%) [3, 6]: 10 (13) N (%)
- ≥1% Reduction in HbA1c, Responders, N (%) [3, 6]: 4 (5) N (%)
- Hemoglobin A1c, Adjusted Mean Change From Baseline (SE) ([3]; ITT, Week 52, glyburide monotherapy (active control)): 0.90 (0.20) %
- Hemoglobin A1c, Adjusted Mean Change From Baseline (SE) ([3]; ITT, Week 52, glyburide monotherapy (active control), listed as glyburide): 0.90%
- patients with HbA1c of ≤7% ([3]; Week 52, glyburide monotherapy): 1%
- patients with HbA1c of ≤8% ([3]; end of study, glyburide (active control)): 10%
- associated adverse events, incidence ([4]; overall, all doses): 10%
- patients with adverse events ([4]; overall, all doses): 90%

Compound: Cc1c(C)c2c(c(C)c1O)CCC(C)(COc1ccc(CC3SC(=O)NC3=O)cc1)O2 (centres unmarked) [Troglitazone]
- Body weight, Adjusted Mean Change From Baseline (SE) ([1]; troglitazone 200 mg, or 200/12 mg in combination): -6.9 lbs
- Body weight, Adjusted Mean Change From Baseline (SE) ([1]; troglitazone 400 mg, or 400/12 mg in combination): -3.9 lbs
- Body weight, Adjusted Mean Change From Baseline (SE) ([1]; troglitazone 600 mg, or 600/12 mg in combination): -0.8 lbs
- mean decrease in body weight from baseline [1]: 1 to 7 lbs
- withdrawal for lack of efficacy ([2]; 200 mg troglitazone): ~60% and 55%
- Withdrawn, Adverse Event, Number (%) of Patients [2, 7]: 6 (7.7) Number (%) of Patients
- Withdrawn, Lack of Efficacy, Number (%) of Patients [2, 7]: 43 (55.1) Number (%) of Patients
- Withdrawn, Adverse Event, Number (%) of Patients [2, 8]: 7 (8.6) Number (%) of Patients
- Withdrawn, Lack of Efficacy, Number (%) of Patients [2, 8]: 32 (39.5) Number (%) of Patients
- Withdrawn, Adverse Event, Number (%) of Patients [2, 9]: 6 (7.7) Number (%) of Patients
- Withdrawn, Lack of Efficacy, Number (%) of Patients [2, 9]: 34 (43.6) Number (%) of Patients
- Fasting Serum Glucose, Adjusted Mean Change From Baseline (SE) [3, 10]: 13.4 (12.0) mg/dL
- Hemoglobin A1c, Adjusted Mean Change From Baseline (SE) [3, 10]: 0.55 (0.38) %
- Fasting Serum Glucose, Adjusted Mean Difference From Glyburide Monotherapy (SE) [3, 11]: 0.3 (14.6) mg/dL
- Hemoglobin A1c, Adjusted Mean Difference From Glyburide Monotherapy (SE) [3, 11]: -0.23 (0.46) %
- Fasting Serum Glucose, Adjusted Mean Change From Baseline (SE) [3, 12]: -20.5 (9.4) mg/dL
- Hemoglobin A1c, Adjusted Mean Change From Baseline (SE) [3, 12]: -0.25 (0.29) %
- Fasting Serum Glucose, Adjusted Mean Change From Baseline (SE) [3, 13]: -11.7 (9.8) mg/dL
- Hemoglobin A1c, Adjusted Mean Change From Baseline (SE) [3, 13]: -0.26 (0.30) %
- Fasting Serum Glucose, Adjusted Mean Difference From Glyburide Monotherapy (SE) ([3]; Completers, Week 52, troglitazone 600 mg, or 600 mg/12 mg in combination, *p ≤ 0.05, **p ≤ 0.0001): -24.8 (12.6) mg/dL
- Fasting Serum Glucose, Adjusted Mean Change From Baseline (SE) ([3]; ITT, Week 52 (Month 12), troglitazone 200 mg, or 200 mg/12 mg in combination): 42.4 (7.0) mg/dL
- Fasting Serum Glucose, Adjusted Mean Change From Baseline (SE) ([3]; ITT, Week 52 (Month 12), troglitazone 400 mg, or 400 mg/12 mg in combination): 20.6 (7.0) mg/dL
- Fasting Serum Glucose, Adjusted Mean Change From Baseline (SE) ([3]; ITT, Week 52 (Month 12), troglitazone 600 mg, or 600 mg/12 mg in combination): 11.1 (7.1) mg/dL
- FSG versus glyburide (result in words) ([3]; ITT, Week 52, 400 and 600 mg troglitazone monotherapy): these decreases were not significant
- Hemoglobin A1c, Adjusted Mean Change From Baseline (SE) ([3]; ITT, Week 52, troglitazone 200 mg, or 200 mg/12 mg in combination): 1.92 (0.20) %
- Fasting Serum Glucose, Adjusted Mean Difference From Glyburide Monotherapy (SE) ([3]; ITT, Week 52, troglitazone 200 mg, or 200 mg/12 mg in combination, *p ≤ 0.001, **p ≤ 0.0001): 19.6 (9.7) mg/dL
- Hemoglobin A1c, Adjusted Mean Change From Baseline (SE) ([3]; ITT, Week 52, troglitazone 200 mg, or 200 mg/12 mg in combination, listed as troglitazone): 1.92%
- ≥30 mg/dL Reduction in FSG, Responders, N (%) [3, 14]: 11 (14) N (%)
- ≥1% Reduction in HbA1c, Responders, N (%) [3, 14]: 3 (4) N (%)
- Hemoglobin A1c, Adjusted Mean Change From Baseline (SE) ([3]; ITT, Week 52, troglitazone 400 mg, or 400 mg/12 mg in combination): 0.85 (0.20) %
- Fasting Serum Glucose, Adjusted Mean Difference From Glyburide Monotherapy (SE) [3, 15]: -2.2 (9.7) mg/dL
- Hemoglobin A1c, Adjusted Mean Difference From Glyburide Monotherapy (SE) [3, 15]: -0.05 (0.28) %
- ≥30 mg/dL Reduction in FSG, Responders, N (%) [3, 16]: 20 (26) N (%)
- ≥1% Reduction in HbA1c, Responders, N (%) [3, 16]: 13 (17) N (%)
- Hemoglobin A1c, Adjusted Mean Change From Baseline (SE) ([3]; ITT, Week 52, troglitazone 600 mg, or 600 mg/12 mg in combination): 0.93 (0.20) %
- Fasting Serum Glucose, Adjusted Mean Difference From Glyburide Monotherapy (SE) [3, 17]: -11.6 (9.7) mg/dL
- Hemoglobin A1c, Adjusted Mean Difference From Glyburide Monotherapy (SE) [3, 17]: 0.03 (0.28) %
- ≥30 mg/dL Reduction in FSG, Responders, N (%) [3, 18]: 18 (24) N (%)
- ≥1% Reduction in HbA1c, Responders, N (%) [3, 18]: 8 (11) N (%)
- HbA1c versus glyburide monotherapy (result in words) ([3]; completers, 400 and 600 mg troglitazone monotherapy, p ≤0.05): HbA1c decreased significantly (p ≤0.05) compared with glyburide monotherapy
- patients with mildly elevated liver enzymes (<3×upper normal limit) at end of study ([4]; 200 mg monotherapy): one
- adverse event profile versus glyburide monotherapy (result in words) ([4]; human, in vivo): Most adverse events occurred at the lower incidence in patients treated with troglitazone monotherapy compared with the patients treated with glyburide monotherapy
- hematological parameters (result in words) ([4]; human, in vivo): no patient experienced clinically important decreases in any hematological parameter that can be directly attributable to troglitazone
- patients with adverse events ([4]; overall, all doses): 70%
- patients with mildly transient decreases in hemoglobin/hematocrit which returned to baseline ([4]; remaining on drug, mono: two on 400 mg, one on 600 mg, combination: three on 400 mg/12 mg, one on 600 mg/12 mg): 3 patients
- tolerability (result in words) ([4]; throughout the study): well-tolerated throughout the study; also recorded: well-tolerated during the study
